According to the NIST ThermoML archive (doi:10.1021/je049612f):
Numbers after ± are expanded uncertainties.

Settings: Gas, Vibrating wire viscometry

FS(F)(F)(F)(F)F [sulfur hexafluoride]
Settings | viscosity [mPa·s]
321 K, 1893.8 kPa | 0.01729 ± 0.00091
321 K, 1930.7 kPa | 0.01734 ± 0.00091
321 K, 2004.9 kPa | 0.01743 ± 0.00091
321 K, 2041.9 kPa | 0.01747 ± 0.00091
321 K, 2120.4 kPa | 0.01758 ± 0.00091
321 K, 2221.3 kPa | 0.01772 ± 0.00091
321 K, 2270.3 kPa | 0.0178 ± 0.00091
321 K, 2332.7 kPa | 0.0179 ± 0.00091
321 K, 2373.2 kPa | 0.01797 ± 0.00091
321 K, 2451.3 kPa | 0.01812 ± 0.00092
321 K, 2534.7 kPa | 0.01826 ± 0.00092
321 K, 2581.9 kPa | 0.01837 ± 0.00092
321 K, 2629.5 kPa | 0.01846 ± 0.00092
321 K, 2688.1 kPa | 0.0186 ± 0.00092
321 K, 2803.9 kPa | 0.01888 ± 0.00092
321 K, 2873.5 kPa | 0.01908 ± 0.00092
321 K, 2959.1 kPa | 0.01932 ± 0.00092
321 K, 3050 kPa | 0.01963 ± 0.00093
321 K, 3136.6 kPa | 0.01995 ± 0.00093
321 K, 3229.6 kPa | 0.02035 ± 0.00093
321 K, 3282 kPa | 0.0206 ± 0.00093
321 K, 3384.4 kPa | 0.02117 ± 0.00094
321 K, 3445.9 kPa | 0.02156 ± 0.00094
321 K, 3498.8 kPa | 0.02195 ± 0.00094
321 K, 3558.3 kPa | 0.02244 ± 0.00095
321 K, 3606.1 kPa | 0.02294 ± 0.00095
321 K, 3651.4 kPa | 0.02346 ± 0.00096
321 K, 3695.6 kPa | 0.02407 ± 0.00096
321 K, 3729.2 kPa | 0.02462 ± 0.00097
321 K, 3765.4 kPa | 0.0253 ± 0.00097
321 K, 3793.6 kPa | 0.026 ± 0.00098
321 K, 3819.6 kPa | 0.02674 ± 0.00099
321 K, 3858.5 kPa | 0.02827 ± 0.001
321 K, 3887.8 kPa | 0.0299 ± 0.0011
321 K, 3899.4 kPa | 0.03104 ± 0.0011
321 K, 3910.1 kPa | 0.03218 ± 0.0012
321 K, 3918.4 kPa | 0.03355 ± 0.0012
321 K, 3926.6 kPa | 0.03481 ± 0.0012
321 K, 3933.3 kPa | 0.03615 ± 0.0012
321 K, 3938.4 kPa | 0.03743 ± 0.0012
321 K, 3945.7 kPa | 0.03995 ± 0.0013
321 K, 3950.6 kPa | 0.04131 ± 0.0013
321 K, 3955.4 kPa | 0.04272 ± 0.0013
321 K, 3961 kPa | 0.04435 ± 0.0014
321 K, 3968.8 kPa | 0.04638 ± 0.0013
321 K, 3977 kPa | 0.04813 ± 0.0014
321 K, 3988.3 kPa | 0.05018 ± 0.0014
321 K, 4001.1 kPa | 0.05214 ± 0.0013
321 K, 4020.8 kPa | 0.05448 ± 0.0013
321 K, 4046.8 kPa | 0.05683 ± 0.0013
321 K, 4077.1 kPa | 0.05902 ± 0.0013
321 K, 4112.9 kPa | 0.06125 ± 0.0013
321 K, 4160 kPa | 0.0635 ± 0.0013
321 K, 4223.8 kPa | 0.06599 ± 0.0013
321 K, 4349.4 kPa | 0.07 ± 0.0013
321 K, 4465.5 kPa | 0.07305 ± 0.0014
321 K, 4601.3 kPa | 0.07606 ± 0.0014
321 K, 4740.5 kPa | 0.07859 ± 0.0014
321 K, 4879.1 kPa | 0.08093 ± 0.0014
321 K, 5134 kPa | 0.08474 ± 0.0015
321 K, 5554.1 kPa | 0.09001 ± 0.0015
321 K, 5938 kPa | 0.09416 ± 0.0016
321 K, 6388.7 kPa | 0.09845 ± 0.0016
321 K, 7256.2 kPa | 0.1057 ± 0.0017
321 K, 7905.1 kPa | 0.1105 ± 0.0017
321 K, 8647.5 kPa | 0.1154 ± 0.0018
321 K, 9548.1 kPa | 0.1212 ± 0.0018
321 K, 10352 kPa | 0.1258 ± 0.0019
321 K, 11075 kPa | 0.1297 ± 0.0019
333.15 K, 91.55 kPa | 0.01681 ± 0.0009
333.15 K, 113.58 kPa | 0.01682 ± 0.0009
333.15 K, 142.52 kPa | 0.01682 ± 0.0009
333.15 K, 172.42 kPa | 0.01683 ± 0.0009
333.15 K, 198.48 kPa | 0.01684 ± 0.0009
333.15 K, 218.78 kPa | 0.01685 ± 0.0009
333.15 K, 243.22 kPa | 0.01685 ± 0.0009
333.15 K, 275.2 kPa | 0.01686 ± 0.0009
333.15 K, 294.03 kPa | 0.01686 ± 0.0009
333.15 K, 319.41 kPa | 0.01687 ± 0.0009
333.15 K, 350.89 kPa | 0.01688 ± 0.0009
333.15 K, 378.94 kPa | 0.01689 ± 0.0009
333.15 K, 416.93 kPa | 0.0169 ± 0.00091
333.15 K, 443.4 kPa | 0.01691 ± 0.00091
333.15 K, 479.64 kPa | 0.01692 ± 0.00091
333.15 K, 506.6 kPa | 0.01693 ± 0.00091
333.15 K, 547.64 kPa | 0.01694 ± 0.00091
333.15 K, 590.65 kPa | 0.01695 ± 0.00091
333.15 K, 636.15 kPa | 0.01697 ± 0.00091
333.15 K, 671.18 kPa | 0.01698 ± 0.00091
333.15 K, 717.74 kPa | 0.017 ± 0.00091
333.15 K, 772.31 kPa | 0.01703 ± 0.00091
333.15 K, 837.79 kPa | 0.01705 ± 0.00091
333.15 K, 887.92 kPa | 0.01708 ± 0.00091
333.15 K, 946.43 kPa | 0.0171 ± 0.00091
333.15 K, 1025.7 kPa | 0.01715 ± 0.00091
333.15 K, 1092.5 kPa | 0.01718 ± 0.00091
333.15 K, 1167.4 kPa | 0.01723 ± 0.00091
333.15 K, 1233.2 kPa | 0.01727 ± 0.00091
333.15 K, 1307.8 kPa | 0.01732 ± 0.00091
333.15 K, 1366.9 kPa | 0.01737 ± 0.00091
333.15 K, 1419.7 kPa | 0.0174 ± 0.00091
333.15 K, 1502.8 kPa | 0.01746 ± 0.00091
333.15 K, 1566.4 kPa | 0.01751 ± 0.00091
333.15 K, 1629.7 kPa | 0.01757 ± 0.00091
333.15 K, 1705.8 kPa | 0.01763 ± 0.00091
333.15 K, 1772.9 kPa | 0.01769 ± 0.00091
333.15 K, 1853.5 kPa | 0.01778 ± 0.00091
333.15 K, 1917.4 kPa | 0.01783 ± 0.00091
333.15 K, 1967 kPa | 0.0179 ± 0.00091
333.15 K, 2025.7 kPa | 0.01795 ± 0.00091
333.15 K, 2294.7 kPa | 0.01828 ± 0.00092
333.15 K, 2427.7 kPa | 0.01848 ± 0.00092
333.15 K, 2519.2 kPa | 0.01862 ± 0.00092
333.15 K, 2631.9 kPa | 0.0188 ± 0.00092
333.15 K, 2766.3 kPa | 0.01904 ± 0.00092
333.15 K, 2872 kPa | 0.01925 ± 0.00092
333.15 K, 3008.3 kPa | 0.01955 ± 0.00093
333.15 K, 3089.4 kPa | 0.01973 ± 0.00093
333.15 K, 3195.2 kPa | 0.02001 ± 0.00093
333.15 K, 3306.1 kPa | 0.02032 ± 0.00093
333.15 K, 3398.7 kPa | 0.0206 ± 0.00093
333.15 K, 3504 kPa | 0.02097 ± 0.00094
333.15 K, 3605.1 kPa | 0.02135 ± 0.00094
333.15 K, 3722 kPa | 0.02185 ± 0.00094
333.15 K, 3815.4 kPa | 0.02229 ± 0.00095
333.15 K, 3932.1 kPa | 0.02291 ± 0.00095
333.15 K, 4050.8 kPa | 0.0237 ± 0.00096
333.15 K, 4148.2 kPa | 0.02445 ± 0.00097
333.15 K, 4239.9 kPa | 0.02524 ± 0.00099
333.15 K, 4328.2 kPa | 0.02616 ± 0.00098
333.15 K, 4406.9 kPa | 0.02715 ± 0.00099
333.15 K, 4479.7 kPa | 0.02819 ± 0.001
333.15 K, 4549.6 kPa | 0.02938 ± 0.0012
333.15 K, 4612.3 kPa | 0.03054 ± 0.001
333.15 K, 4671.8 kPa | 0.03186 ± 0.0013
333.15 K, 4725.8 kPa | 0.03331 ± 0.0011
333.15 K, 4776.6 kPa | 0.03476 ± 0.0012
333.15 K, 4828.1 kPa | 0.03629 ± 0.0013
333.15 K, 4880.1 kPa | 0.03801 ± 0.0011
333.15 K, 4933.2 kPa | 0.03982 ± 0.0011
333.15 K, 4991.6 kPa | 0.0419 ± 0.0012
333.15 K, 5049 kPa | 0.04395 ± 0.0013
333.15 K, 5109.4 kPa | 0.04603 ± 0.0012
333.15 K, 5178.8 kPa | 0.04833 ± 0.0012
333.15 K, 5254.9 kPa | 0.05072 ± 0.0012
333.15 K, 5343.6 kPa | 0.05331 ± 0.0012
333.15 K, 5447.5 kPa | 0.0561 ± 0.0012
333.15 K, 5567.4 kPa | 0.05883 ± 0.0012
333.15 K, 5709.9 kPa | 0.06196 ± 0.0013
333.15 K, 5869.5 kPa | 0.06483 ± 0.0013
333.15 K, 6098.2 kPa | 0.0687 ± 0.0013
333.15 K, 6338.2 kPa | 0.07217 ± 0.0014
333.15 K, 6627.7 kPa | 0.07584 ± 0.0014
333.15 K, 6950.6 kPa | 0.07952 ± 0.0014
333.15 K, 7378.3 kPa | 0.08395 ± 0.0015
333.15 K, 7900 kPa | 0.08869 ± 0.0015
333.15 K, 8519.8 kPa | 0.09355 ± 0.0016
333.15 K, 9106.8 kPa | 0.09795 ± 0.0016
333.15 K, 9802 kPa | 0.1027 ± 0.0016
333.15 K, 10465 kPa | 0.1067 ± 0.0017
333.15 K, 11412 kPa | 0.1122 ± 0.0018
333.15 K, 12565 kPa | 0.1183 ± 0.0018
350 K, 64.67 kPa | 0.01753 ± 0.00091
350 K, 96.54 kPa | 0.01755 ± 0.00091
350 K, 117.61 kPa | 0.01755 ± 0.00091
350 K, 143.77 kPa | 0.01756 ± 0.00091
350 K, 170.68 kPa | 0.01756 ± 0.00091
350 K, 204.56 kPa | 0.01758 ± 0.00091
350 K, 238.01 kPa | 0.01759 ± 0.00091
